Values of other authors, collected in PMC3483082 (Chembiochem : a European journal of chemical biology, 2012).

Key:
[1] = tested on: CDK1; details: read-out: IC50 CDK1
[2] = tested on: CDK2; details: read-out: IC50 (CDK2 inhibitor)

For `CCN(CC)CCNC(=O)c1c(C)[nH]c(/C=C2\C(=O)Nc3ccc(F)cc32)c1C` [Hit 1, sunitinib], the IC50 [1] is listed as 2.6 µM.
